Measurements: PubChem BioAssay (NCI)
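In this assay, cells in 96-well plates receive the compound at five concentrations for 48 hours. Endpoints are linearly interpolated between the surrounding concentrations. Definition used: TGI = concentration required for complete inhibition of growth.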

Experiments:
Assay in all cases: DTP human tumour cell line panel, 48 h
SF-295 CNS = system: SF-295 CNS
NCI-H522 lung = system: NCI-H522 lung
UO-31 renal = system: UO-31 renal
MOLT-4 leukemia = system: MOLT-4 leukemia
MDA-MB-435 = system: MDA-MB-435
MDA-N = system: MDA-N
UACC-257 melanoma = system: UACC-257 melanoma
COLO 205 colon = system: COLO 205 colon
BT-549 breast = system: BT-549 breast
CCRF-CEM leukemia = system: CCRF-CEM leukemia
EKVX NSCLC = system: EKVX NSCLC

Structure (SMILES) | TGI (SF-295 CNS) | TGI (NCI-H522 lung) | TGI (UO-31 renal) | TGI (MOLT-4 leukemia) | TGI (MDA-MB-435) | TGI (MDA-N) | TGI (UACC-257 melanoma) | TGI (COLO 205 colon) | TGI (BT-549 breast) | TGI (CCRF-CEM leukemia) | TGI (EKVX NSCLC)
CC[C@H](O)[C@H](C)C=C1SCCCS1 | > 100 µM | > 100 µM | > 100 µM | > 100 µM | > 100 µM | > 100 µM | > 100 µM | > 100 µM | > 100 µM | > 100 µM | > 100 µM
COC(=O)[C@@H]1[C@@H](c2cccc(Cl)c2)[C@H](C(=O)OC)C2(C[C@@]1(C)O)NCCS2 (some centres undefined) | > 100 µM | > 100 µM | > 100 µM | 42.1 µM | > 100 µM | > 100 µM | > 100 µM | > 100 µM | > 100 µM | 14.6 µM | > 100 µM
COC(=O)C1=C(C(=O)OC)C(C(=O)c2ccc(Br)cc2)N2N=C(c3ccc(Cl)cc3)C=CC12 (centres undefined) | > 100 µM | > 100 µM | > 100 µM | > 100 µM | > 100 µM | > 100 µM | > 100 µM | > 100 µM | > 100 µM | > 100 µM | > 100 µM
Nn1c(COc2cccc(OCc3n[nH]c(=S)n3N)c2)n[nH]c1=S | > 100 µM | > 100 µM | > 100 µM | 21.7 µM | > 100 µM | > 100 µM | > 100 µM | > 100 µM | > 100 µM | > 100 µM | > 100 µM
O=S(=O)(O)c1cc(O)c2c(N=Cc3ccccc3O)cc(S(=O)(=O)O)cc2c1 | > 100 µM | > 100 µM | > 100 µM | > 100 µM | > 100 µM | > 100 µM | > 100 µM | > 100 µM | > 100 µM | > 100 µM | > 100 µM
CCCSc1ccc2[nH]c(N3C(=O)/C(=C/c4ccco4)N=C3c3ccccc3)cc2c1 | – | 37.8 µM | > 50 µM | > 50 µM | 28 µM | 20.1 µM | > 50 µM | 32.8 µM | > 50 µM | > 50 µM | > 50 µM
CC(O)c1cc2c(s1)C(=O)c1sccc1C2=O (centres undefined) | 0.191 µM | 0.602 µM | 0.359 µM | > 100 µM | 0.0522 µM | 0.0367 µM | 0.0358 µM | 1.09 µM | 0.175 µM | > 100 µM | 0.674 µM
COc1ccc2c(CCN)c(C(=O)O)[nH]c2c1 | > 100 µM | > 100 µM | > 100 µM | > 100 µM | > 100 µM | > 100 µM | > 100 µM | > 100 µM | > 100 µM | > 100 µM | > 100 µM
C[C@H](CCC(=O)NCCS(=O)(=O)O)[C@H]1CC[C@H]2[C@@H]3CC[C@@H]4C[C@H](O)CC[C@]4(C)[C@H]3CC[C@]12C | > 100 µM | > 100 µM | > 100 µM | > 100 µM | > 100 µM | > 100 µM | > 100 µM | > 100 µM | > 100 µM | > 100 µM | > 100 µM
O=C1CC2(c3ccccc3)ON=C(c3ccccc3)N2c2ccccc2N1 (centres undefined) | > 100 µM | > 100 µM | > 100 µM | > 100 µM | 53.2 µM | > 100 µM | > 100 µM | > 100 µM | > 100 µM | > 100 µM | > 100 µM
CC(=O)OCCCOCn1c(Cc2ccccc2)c(C)c(=O)[nH]c1=O | > 100 µM | > 100 µM | > 100 µM | > 100 µM | > 100 µM | > 100 µM | > 100 µM | > 100 µM | > 100 µM | > 100 µM | > 100 µM
COC(=O)C1C/C(=C/N(C)C)C(=S)N1 (centres undefined) | > 100 µM | > 100 µM | > 100 µM | > 100 µM | > 100 µM | > 100 µM | > 100 µM | > 100 µM | > 100 µM | > 100 µM | > 100 µM
N#CCc1n[nH]c(Cc2ccccc2)n1 | > 100 µM | > 100 µM | > 100 µM | > 100 µM | > 100 µM | > 100 µM | > 100 µM | > 100 µM | > 100 µM | > 100 µM | > 100 µM
Oc1ccc(-c2nc(-c3cccnc3)c(-c3ccc(Cl)cc3)[nH]2)cc1O | 29.8 µM | 4.68 µM | 26.8 µM | > 100 µM | 30.3 µM | 25.1 µM | 28.3 µM | 30.3 µM | 21.6 µM | > 100 µM | 50.2 µM
COC(=O)c1c(O)ccc2c1c1c(n2Cc2ccccc2Cl)C(=O)c2ccccc2C1=O | 31.6 µM | 25.5 µM | 24.8 µM | 56.1 µM | 25.2 µM | 31.1 µM | 32.8 µM | 15.8 µM | 29.2 µM | 43.6 µM | 32.5 µM
